Tests used:
Format in all cases: cell-based
HEC-151 cells = experiment: CellTiter-Glo viability/proliferation assay, growth of HEC-151 TP53 WT endometrial cancer cells; conditions: 144 h, 6-day incubation
Protocol: (§1) The effect of MDM2 inhibitor compound of Formula (I) on growth of a p53 wild-type (TP53 WT) endometrial cancer cell line was assessed in HEC-151 cells, HEC-265 cells, and HEC-108 cells as described below.
(§2) Test and Control Article Preparation: A stock solution for Formula (I) was created by dissolving the compound in 100% DMSO to a concentration of 10 mM which was stored at −20 °C. Working solutions ranging from 0.04 μM to 10 μM to generate a 10-point dilution series were prepared by diluting the stock solution in culture media specific to each cell line (cell line assay media). Final concentrations of DMSO were kept constant at 0.1% to maintain cell viability. […]
(§3) Treatment of Cells for Proliferation Assay: Cells were counted (Countess III automated cell counter, Thermo Fisher Scientific) using a cell viability imaging kit (Thermo Fisher Scientific; cat #R37609). […]
(§4) On Day 0 prior treatment, and after the treatment period, the number of viable cells were measured using the CellTiter-Glo® Luminescent Cell Viability Assay (Promega) according to manufacturer instructions. The luminescence for each treatment condition was normalized to the DMSO control as a percent of control. Dose response curves were generated and EC50s and EC90s were determined based on percent of DMSO control. […]

HEC-265 cells = experiment: CellTiter-Glo viability/proliferation assay, growth of HEC-265 TP53 WT endometrial cancer cells; conditions: 144 h, 6-day incubation
Protocol: as §1, §2, §3, §4

HEC-108 cells = experiment: CellTiter-Glo viability/proliferation assay, growth of HEC-108 TP53 WT endometrial cancer cells
Protocol: as §1, §2, §3, §4

[1] = test system: p53 wild-type (TP53 WT) endometrial cancer cell line; experiment: Inhibition of endometrial cancer cell growth (overall result, FIG. 1); conditions: at clinically relevant doses; results shown in FIG. 1
Protocol: as §1, §2, §3, §4

[2] = read-out: Near complete growth inhibition (EC90)

EC50 (HEC-151 cells; percent of DMSO control): 400 nM
EC90 (HEC-151 cells; [2]): 700 nM
EC50 (HEC-265 cells; percent of DMSO control): 600 nM
EC90 (HEC-265 cells; [2]): 700 nM
SMILES: CC(C)[C@@H](CS(=O)(=O)C(C)C)N1C(=O)[C@@](C)(CC(=O)O)C[C@H](c2cccc(Cl)c2)[C@H]1c1ccc(Cl)cc1 [Formula (I), 2-((3R,5R,6S)-5-(3-chlorophenyl)-6-(4-chlorophenyl)-1-((S)-1-(isopropylsulfonyl)-3-methylbutan-2-yl)-3-methyl-2-oxopiperidin-3-yl) acetic Acid]
growth inhibition (200-point scale: 0 uninhibited growth, 100 cell stasis, 200 complete cell killing) (HEC-108 cells; at 10 μM, 6-day exposure): only nearly reached cell stasis
cell killing sensitivity (HEC-108 cells; compared with HEC-151 and HEC-265, 6-day exposure): less sensitive
growth inhibition [1]: growth inhibition by the compound of Formula (I) at clinically relevant doses
